Test results: patent US20230382949A1 (HEPTARES THERAPEUTICS LIMITED, priority 2020, published 2023)
Read-outs that look alike come from different tables or passages of the source. Starred links: 1 amine or outer side, 2 acyl side, 3 side chain; linkers in the order of their positions; H or OH if unused. Non-standard residues stand in square brackets, D forms with d. Residues, ends and D or L forms follow the SMILES beside them. *: point of attachment. Ala(piperidin-4-yl) = O=C([C@H](CC1CCN([*:3])CC1)N[*:1])[*:2]; Malonyl(2,2-Me2,histaminyl) = CC(C)(C(=O)NCCc1cnc[nH]1)C(=O)*; dBip = N[C@H](Cc1ccc(-c2ccccc2)cc1)C(=O)O; Oic = O=C(O)[C@@H]1C[C@@H]2CCCC[C@@H]2N1; Phe(4-Br) = N[C@@H](Cc1ccc(Br)cc1)C(=O)O; X5 = CC(C)(C(=O)NCc1c[nH]cn1)C(=O)*; hArg = N=C(N)NCCCC[C@H](N)C(=O)O; Pip = O=C(O)[C@@H]1CCCCN1; Aib = CC(C)(N)C(=O)O; Bn = c1ccc(C*)cc1

How the values were obtained:
human Apelin receptor [1] = target: T1, human Apelin receptor (Homo sapiens, UniProt P35414); assay: cAMP accumulation assay (HTRF), functional agonism of human Apelin receptors; assay type: cell-based; conditions: for Emax: CHO
T1 sequence (P35414 1-380): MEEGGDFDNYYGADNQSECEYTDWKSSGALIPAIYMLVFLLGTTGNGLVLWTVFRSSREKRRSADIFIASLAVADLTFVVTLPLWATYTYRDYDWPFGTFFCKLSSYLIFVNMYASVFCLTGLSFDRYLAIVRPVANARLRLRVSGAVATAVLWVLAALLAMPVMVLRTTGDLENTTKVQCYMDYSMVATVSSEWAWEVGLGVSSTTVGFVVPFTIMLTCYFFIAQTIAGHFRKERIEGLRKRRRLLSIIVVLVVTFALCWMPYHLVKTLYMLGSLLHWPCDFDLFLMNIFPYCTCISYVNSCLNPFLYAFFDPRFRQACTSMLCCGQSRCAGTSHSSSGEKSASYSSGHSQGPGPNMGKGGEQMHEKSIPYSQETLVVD
Text: cAMP functional assay. cAMP production was quantified using the Homogeneous Time-Resolved Fluorescence (HTRF) cAMP dynamic-2 assay (Cisbio, France).

human Apelin receptor [2] = target: T2, human Apelin receptor (Homo sapiens, UniProt P35414); assay: β-arrestin accumulation assay, functional agonism of human Apelin receptors; assay type: cell-based
T2 construct: host or cells: CHO-K1 cells
Procedure, shortened: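 After 16 h at 37° C., cells were exposed to increasing agonist concentrations in serum-free medium for 90 min at 37° C. Detection reagent added for 60 min in the dark; receptor activation read by fluorescence and EC50 derived from concentration-response curves.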
T2 sequence (P32121 whole entry partner, one chain of several): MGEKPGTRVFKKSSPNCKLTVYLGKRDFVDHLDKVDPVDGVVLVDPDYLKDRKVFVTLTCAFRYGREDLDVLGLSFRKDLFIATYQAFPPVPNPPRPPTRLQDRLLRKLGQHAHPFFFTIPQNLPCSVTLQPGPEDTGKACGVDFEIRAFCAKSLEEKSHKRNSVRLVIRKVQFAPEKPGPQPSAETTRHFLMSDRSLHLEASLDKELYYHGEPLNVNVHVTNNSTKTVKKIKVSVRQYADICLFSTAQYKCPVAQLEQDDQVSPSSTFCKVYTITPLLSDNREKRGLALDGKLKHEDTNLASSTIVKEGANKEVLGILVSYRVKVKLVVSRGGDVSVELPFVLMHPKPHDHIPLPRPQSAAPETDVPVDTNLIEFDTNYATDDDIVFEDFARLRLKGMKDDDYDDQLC

[3] = Human Apelin agonist cAMP assay, CHO cells stably expressing the human Apelin receptor, 3 uM forskolin
[4] = pEC50, Human Apelin agonist cAMP assay, CHO cells stably expressing the human Apelin receptor, 3 uM forskolin

SMILES | Emax (human Apelin receptor [1]; read-out: Emax) | EC50 (human Apelin receptor [1]; read-out: pEC50 (converted)) | Emax (human Apelin receptor [1]; [3]) | EC50 (human Apelin receptor [1]; [4]) | EC50 (human Apelin receptor [2])
CC(C)C[C@H](NC(=O)[C@H](CCCNC(=N)N)NC(=O)[C@@H]1CCCN1C(=O)[C@@H](CCCNC(=N)N)NC(=O)[C@H](CCC(N)=O)NC(=O)C(C)(C)C(=O)NCCc1cnc[nH]1)C(=O)NC(C)(C)C(=O)N[C@@H](Cc1c[nH]cn1)C(=O)N[C@@H](CC1CCNCC1)C(=O)NCC(=O)N1[C@H](C(=O)N[C@@H](Cc2ccc(Br)cc2)C(=O)N2CCC[C@H]2C(=O)N[C@H](Cc2ccc(OCc3ccccc3)cc2)C(=O)O)C[C@@H]2CCCC[C@@H]21 [Example 42] ({Malonyl(2,2-Me2,histaminyl)}-Q[dR]PRL[Aib]H[Ala(piperidin-4-yl)]G[Oic][Phe(4-Br)]P[dY](Bn)-OH) |  |  | 107% | 7.94 nM | 0.0794 µM
CC(C)C[C@H](NC(=O)[C@@H](CCCNC(=N)N)NC(=O)[C@@H]1CCCN1C(=O)[C@H](CCCCNC(=N)N)NC(=O)[C@H](CCC(N)=O)NC(=O)[C@@H](CCCNC(=N)N)NC(=O)C(C)(C)C(=O)NCCc1cnc[nH]1)C(=O)NC(C)(C)C(=O)N[C@@H](Cc1c[nH]cn1)C(=O)N[C@@H](CC1CCNCC1)C(=O)NCC(=O)N1[C@H](C(=O)N[C@@H](Cc2ccc(Br)cc2)C(=O)N2CCC[C@H]2C(=O)N[C@H](Cc2ccc(-c3ccccc3)cc2)C(=O)O)C[C@@H]2CCCC[C@@H]21 [Example 2] ({Malonyl(2,2-Me2,histaminyl)}-[dR]Q[hArg]P[dR]L[Aib]H[Ala(piperidin-4-yl)]G[Oic][Phe(4-Br)]P[dBip]-OH) |  |  | 50.8% | 20 nM | > 10 µM
CC(C)C[C@H](NC(=O)[C@@H](CCCNC(=N)N)NC(=O)[C@@H]1CCCN1C(=O)[C@H](CCCCNC(=N)N)NC(=O)[C@H](CCC(N)=O)NC(=O)C(C)(C)C(=O)NCCc1cnc[nH]1)C(=O)N[C@H](C)C(=O)N[C@@H](Cc1c[nH]cn1)C(=O)N[C@@H](CC1CCNCC1)C(=O)NCC(=O)N1[C@H](C(=O)N[C@@H](Cc2ccc(Br)cc2)C(=O)N2CCC[C@H]2C(=O)N[C@H](Cc2ccc(-c3ccccc3)cc2)C(=O)O)C[C@@H]2CCCC[C@@H]21 [Example 38] ({Malonyl(2,2-Me2,histaminyl)}-Q[hArg]P[dR]L[dA]H[Ala(piperidin-4-yl)]G[Oic][Phe(4-Br)]P[dBip]-OH) |  |  | 27.9% | 31.6 nM | > 10 µM

Second part, led by results:

Emax (human Apelin receptor [1]; read-out: Emax) | EC50 (human Apelin receptor [1]; read-out: pEC50 (converted)) | SMILES | Emax (human Apelin receptor [1]; [3]) | EC50 (human Apelin receptor [1]; [4]) | EC50 (human Apelin receptor [2])
85.9% | 12.6 nM | CC(C)C[C@H](NC(=O)[C@@H](CCCNC(=N)N)NC(=O)[C@@H]1CCCCN1C(=O)[C@H](CCCNC(=N)N)NC(=O)[C@H](CCC(N)=O)NC(=O)C(C)(C)C(=O)NCCc1cnc[nH]1)C(=O)NC(C)(C)C(=O)N[C@@H](Cc1c[nH]cn1)C(=O)N[C@@H](CC1CCNCC1)C(=O)NCC(=O)N1[C@H](C(=O)N[C@@H](Cc2ccc(Br)cc2)C(=O)N2CCC[C@H]2C(=O)N[C@H](Cc2ccc(-c3ccccc3)cc2)C(=O)O)C[C@@H]2CCCC[C@@H]21 [Example 55] ({Malonyl(2,2-Me2,histaminyl)}-QR[Pip][dR]L[Aib]H[Ala(piperidin-4-yl)]G[Oic][Phe(4-Br)]P[dBip]-OH) |  |  | > 10 µM
61.2% | 1.26 nM | CC(C)C[C@H](NC(=O)[C@@H](CCCNC(=N)N)NC(=O)[C@@H]1CCCCN1C(=O)[C@H](CCCCNC(=N)N)NC(=O)[C@H](CCC(N)=O)NC(=O)C(C)(C)C(=O)NCCc1cnc[nH]1)C(=O)NC(C)(C)C(=O)N[C@@H](Cc1c[nH]cn1)C(=O)N[C@@H](CC1CCNCC1)C(=O)N[C@@H](C)C(=O)N1[C@H](C(=O)N[C@@H](Cc2ccc(Br)cc2)C(=O)N2CCC[C@H]2C(=O)N[C@H](Cc2ccc(-c3ccccc3)cc2)C(=O)O)C[C@@H]2CCCC[C@@H]21 [Example 54] ({Malonyl(2,2-Me2,histaminyl)}-Q[hArg][Pip][dR]L[Aib]H[Ala(piperidin-4-yl)]A[Oic][Phe(4-Br)]P[dBip]-OH) |  |  | > 10 µM
66.1% | 6.31 nM | CC(C)C[C@H](NC(=O)[C@@H](CCCNC(=N)N)NC(=O)[C@@H]1CCCN1C(=O)[C@H](CCCCNC(=N)N)NC(=O)[C@H](CCC(N)=O)NC(=O)[C@@H](CCCNC(=N)N)NC(=O)C(C)(C)C(=O)NCc1c[nH]cn1)C(=O)NC(C)(C)C(=O)N[C@@H](Cc1c[nH]cn1)C(=O)N[C@@H](CC1CCNCC1)C(=O)NCC(=O)N1[C@H](C(=O)N[C@@H](Cc2ccc(Br)cc2)C(=O)N2CCC[C@H]2C(=O)N[C@H](Cc2ccc(-c3ccccc3)cc2)C(=O)O)C[C@@H]2CCCC[C@@H]21 [Example 27] (X5-[dR]Q[hArg]P[dR]L[Aib]H[Ala(piperidin-4-yl)]G[Oic][Phe(4-Br)]P[dBip]-OH) |  |  | > 10 µM
